According to patent US8129527B2, “Analogs of dehydrophenylahistins and their therapeutic use” (Nereus Pharmacuticals, Inc., priority 2006, dated 2012):

Tested on: HT-29 human colorectal carcinoma cells
Experiment: Cell growth inhibition assay, resazurin (Table 3.2)
Assay type: cell-based
Settings: HT-29, read-out: EC50 (M) Mean
Protocol: The cytotoxic effects of various derivatives of dehydrophenylahistin against HT-29 human colorectal carcinoma cells were determined.
HT-29 cells (ATCC; HTB-38) were maintained in ATCC recommended culture media and cultured in an incubator at 37° C. in 5% CO2 and 95% humidified air.
For cell growth inhibition assays, HT-29 cells were seeded at 5×10^3 cells/well in 90 μl complete media into a Corning 3904 black-walled, clear-bottom tissue culture plates and the plates were incubated overnight to allow cells to establish and enter log phase growth. 20 mM stock solutions of compounds were prepared in 100% DMSO and stored at −80° C. 10× concentrated serial dilutions of the compounds were prepared in culture medium for final concentrations ranging from 20 μM to […]. Ten μl volumes of the 10× serial dilutions were added to the test wells in triplicate and the plates returned to the incubator for 48 hours. The final concentration of DMSO was 0.25% in all samples.
Following 48 hours of drug exposure, 10 μl of 0.2 mg/ml resazurin (obtained from Sigma-Aldrich Chemical Co.) in Mg^2+, Ca^2+ free phosphate buffered saline was added to each well and the plates were returned to the incubator for 3-4 hours. […] Resazurin dye in medium without cells was used to determine the background, which was subtracted from the data for all experimental wells.

SMILES | EC50 [M]
CC(C)(C)c1ocnc1/C=c1\[nH]c(=O)/c(=C/c2ccccn2)[nH]c1=O [Compound 2474, tBu-Oxadelta-PLH-2-Py] | > 6.32e-07
CC(C)(C)c1ocnc1/C=c1\[nH]c(=O)/c(=C/c2cccc([N+](=O)[O-])c2)[nH]c1=O [Compound 2479, tBu-Oxadelta-PLH-m-NO2] | 1.08e-07
CC(C)(C)c1ocnc1/C=c1\[nH]c(=O)/c(=C/c2ccc(Cl)o2)[nH]c1=O [Compound 2481, tBu-Oxadelta-PLH-5-Cl-2-furyl] | 2.56e-07
C=Cc1cccc(/C=c2\[nH]c(=O)/c(=C/c3ncoc3C(C)(C)C)[nH]c2=O)c1 [Compound 2482, tBu-Oxadelta-PLH-m-vinyl] | 2.65e-08
CC(C)(C)c1ocnc1/C=c1\[nH]c(=O)/c(=C/c2ccc(Br)o2)[nH]c1=O [Compound 2483, tBu-Oxadelta-PLH-5-Br-2-furyl] | 2.48e-07
CC(C)(C)c1ocnc1/C=c1\[nH]c(=O)/c(=C/c2cccs2)[nH]c1=O [Compound 2484, tBu-Oxadelta-PLH-2-thienyl] | 1.05e-07
Cc1cccc(/C=c2\[nH]c(=O)/c(=C/c3ncoc3C(C)(C)C)[nH]c2=O)c1C [Compound 2486, tBu-Oxadelta-PLH-2,3-diMe] | 1.43e-07
CC(C)(C)c1ocnc1/C=c1\[nH]c(=O)/c(=C/c2cccc(C(F)(F)F)c2)[nH]c1=O [Compound 2488, tBu-Oxadelta-PLH-m-CF3] | 2.49e-07
CC(C)(C)c1ocnc1/C=c1\[nH]c(=O)/c(=C/c2ccnc3ccccc23)[nH]c1=O [Compound 2500, tBu-oxadelta-PLH-4-quinoline] | 3.99e-07
CC(C)(C)c1ocnc1/C=c1\[nH]c(=O)/c(=C/c2cccc(Oc3ccccc3)c2)[nH]c1=O [Compound 2501, tBu-oxadelta-PLH-3-phenoxy] | 2.39e-08
Cc1oc(-c2ccccc2)cc1/C=c1\[nH]c(=O)/c(=C/c2ncoc2C(C)(C)C)[nH]c1=O [Compound 2505, tBu-oxadelta-PLH-2-Me-5-Ph-3-furyl] | > 6.32e-06
CC(C)(C)c1ocnc1/C=c1\[nH]c(=O)/c(=C/c2cc3ccccc3n2S(=O)(=O)c2ccccc2)[nH]c1=O [Compound 2508, tBu-oxadelta-PLH-1-(Ph-sulfo)-2-indole] | > 6.32e-06
CC(C)(C)c1ocnc1/C=c1\[nH]c(=O)/c(=C/c2ccc3nsnc3c2)[nH]c1=O [Compound 2509, tBu-oxadelta-PLH-2,1,3-benzothiadiazole] | 4.04e-07
CC(C)(C)c1ocnc1/C=c1\[nH]c(=O)/c(=C/c2cc3ccccc3s2)[nH]c1=O [Compound 2510, tBu-oxadelta-PLH-2-benzothiophen] | > 2e-05
CC(C)(C)c1ocnc1/C=c1\[nH]c(=O)/c(=C/c2cc(F)cc3c2OCOC3)[nH]c1=O [Compound 2511, tBu-oxadelta-PLH-7-fluoro-2,4-benzodioxine] | 2.39e-08
CC(C)(C)c1ocnc1/C=c1\[nH]c(=O)/c(=C/c2cccc(C(=O)c3ccccc3)c2)[nH]c1=O [Compound 2512, tBu-oxadelta-PLH-3-benzoyl] | 3.86e-09

Same assay, conditions: Table 3.2, HT-29 cells, read-out: EC50 (M) Mean

SMILES | EC50 [M]
CC(C)(C)c1ocnc1/C=c1\[nH]c(=O)/c(=C/c2ccccc2F)[nH]c1=O [Compound 2475, tBu-Oxadelta-PLH-2-F] | 4.66e-07
CC(C)(C)c1ocnc1/C=c1\[nH]c(=O)/c(=C/c2ccccc2[N+](=O)[O-])[nH]c1=O [Compound 2476, tBu-Oxadelta-PLH-2-NO2] | 1.24e-07
CC(C)(C)c1ocnc1/C=c1\[nH]c(=O)/c(=C/c2cccc(OC(F)(F)F)c2)[nH]c1=O [Compound 2477, tBu-Oxadelta-PLH-m-OCF3] | 4.86e-08
CC(C)(C)c1ocnc1/C=c1\[nH]c(=O)/c(=C/c2ccoc2)[nH]c1=O [Compound 2478, tBu-Oxadelta-PLH-3-furanyl] | 5.37e-08
Cc1ccsc1/C=c1\[nH]c(=O)/c(=C/c2ncoc2C(C)(C)C)[nH]c1=O [Compound 2480, tBu-Oxadelta-PLH-3-Me-2-thienyl] | 1.61e-07
COc1ccccc1/C=c1\[nH]c(=O)/c(=C/c2ncoc2C(C)(C)C)[nH]c1=O [Compound 2485, tBu-Oxadelta-PLH-2-OMe] | 2.18e-07
CC(C)(C)c1ocnc1/C=c1\[nH]c(=O)/c(=C/c2ccsc2)[nH]c1=O [Compound 2487, tBu-Oxadelta-PLH-3-thienyl] | 7.93e-08
CC(C)(C)c1ocnc1/C=c1\[nH]c(=O)/c(=C\c2ccccc2)[nH]c1=O [Compound 2489, (E)-tBu-delta-PLH] | 1.16e-07
CC(C)(C)c1ocnc1/C=c1\[nH]c(=O)/c(=C/CCc2ccccc2)[nH]c1=O [Compound 2496, tBu-oxadelta-PLH-Ph-pr] | 9.48e-07
CCOc1ccc2ccccc2c1/C=c1\[nH]c(=O)/c(=C/c2ncoc2C(C)(C)C)[nH]c1=O [Compound 2497, tBu-oxadelta-PLH-2-OEt-1-naphth] | 5.23e-06
COc1ccc2ccccc2c1/C=c1\[nH]c(=O)/c(=C/c2ncoc2C(C)(C)C)[nH]c1=O [Compound 2498, tBu-oxadelta-PLH-2-OMe-1-naphth] | 1.67e-06
CC(C)(C)c1ocnc1/C=c1\[nH]c(=O)/c(=C/c2c3ccccc3cc3ccccc23)[nH]c1=O [Compound 2499, tBu-oxadelta-PLH-9-anth] | > 6.32e-06
CC(C)(C)c1ocnc1/C=c1\[nH]c(=O)/c(=C/c2ccc(-c3cccs3)s2)[nH]c1=O [Compound 2502, tBu-oxadelta-PLH-2,2′-bitio] | 1.88e-06
CC(C)(C)c1ocnc1/C=c1\[nH]c(=O)/c(=C/c2cn(S(=O)(=O)c3ccccc3)c3ccccc23)[nH]c1=O [Compound 2507, tBu-oxadelta-PLH-1-(Ph-sulfo)-3-indole] | > 6.32e-06
CC(C)(C)c1ocnc1/C=C1\NC(=O)[C@H](Cc2ccccc2)NC1=O [Compound 2513, tBu-oxa-PLH] | 9.24e-07

Tested on: not given
Experiment: not given
Settings: not given

SMILES | melting point [°C]
CC(C)(C)c1ocnc1/C=c1\[nH]c(=O)/c(=C/c2cccc3ccccc23)[nH]c1=O | 168 to 170
Cc1cccc(/C=c2\[nH]c(=O)/c(=C/c3ncoc3C(C)(C)C)[nH]c2=O)c1 | 151 to 153
CC(C)(C)c1ocnc1/C=c1\[nH]c(=O)/c(=C/c2cccc(Cl)c2Cl)[nH]c1=O | 198 to 200
CC(C)(C)c1ocnc1/C=c1\[nH]c(=O)/c(=C/c2ccccn2)[nH]c1=O | 230 to 232
CC(C)(C)c1ocnc1/C=c1\[nH]c(=O)/c(=C/c2cccc([N+](=O)[O-])c2)[nH]c1=O | 225 to 227
CC(C)(C)c1ocnc1/C=c1\[nH]c(=O)/c(=C/c2ccc(Cl)o2)[nH]c1=O | 214 to 216
C=Cc1cccc(/C=c2\[nH]c(=O)/c(=C/c3ncoc3C(C)(C)C)[nH]c2=O)c1 | 150 to 152
Cc1cccc(/C=c2\[nH]c(=O)/c(=C/c3ncoc3C(C)(C)C)[nH]c2=O)c1C | 167 to 169
CC(C)(C)c1ocnc1/C=c1\[nH]c(=O)/c(=C/c2cccc(C(F)(F)F)c2)[nH]c1=O | 243 to 245
CC(C)(C)c1ocnc1/C=c1\[nH]c(=O)/c(=C/c2ccnc3ccccc23)[nH]c1=O | 106 to 108
CC(C)(C)c1ocnc1/C=c1\[nH]c(=O)/c(=C/c2cccc(Oc3ccccc3)c2)[nH]c1=O | 171 to 173
CC(C)(C)c1ocnc1/C=c1\[nH]c(=O)/c(=C/c2cc3ccccc3n2S(=O)(=O)c2ccccc2)[nH]c1=O | 145 to 147
CC(C)(C)c1ocnc1/C=c1\[nH]c(=O)/c(=C/c2cc3ccccc3s2)[nH]c1=O | 225 to 227
